This is an account of results in patent publication US11311546B2, “Method for enhancing wound healing by administrating adenine” (Energenesis Biomedical Co., Ltd., priority 2017, dated 2022).

The subject of one assay is AMPK. The assay is described as follows: AMPK activation assay (western blot of regenerated skin tissue). In kind it is in vivo. The following applies: db/db mice, 12 days post wounding. The method, then: Effects of adenine on AMPK activation were evaluated based on the phosphorylation of AMPK and Acetyl-CoA carboxylase (ACC) protein upon adenine treatment. The process of animal experiment was the same as Example 2, except that after 12 days post wounding, skin tissues of db/db mice were homogenized and subject to western blot analysis. Equal amount of proteins from each sample was separated by SDS-PAGE and then electroblotted on to PVDF membranes. Membranes were blocked with 3% BSA in PBS for 60 mins and incubated with an anti-phospho-AMPK (Thr172) antibody (1:2000, Cell Signaling), an anti-AMPK antibody (1:2000, Cell Signaling), an anti-ACC antibody (1:1000, Cell Signaling) or an anti-phospho-ACC antibody (1:1000, Cell Signaling) at 4° C. overnight followed by the corresponding secondary antibody for 1 h at room temperature (RT). Immunoreactive bands were detected by enhanced chemiluminescence (ECL; Pierce, Rockford, Ill., USA) and recorded using Kodak film (Rochester, N.Y., USA). The detected signals were scanned and then quantified using ImageJ software.
Background: Immunoblotting shows a protein as a band on a membrane.

The test system of assay [1] is pressure ulcer wound of C57BL/6 mice. The assay is described as follows: Pressure ulcer healing. To be noted: 1 to 4,000 μM adenine in normal saline. The format is in vivo. The method, then: The C57BL/6 mice approximately at 8 weeks of age were purchased from the National Laboratory Animal Center (NLAC, R.O.C.). The mice were anesthetized with isoflurane using anesthesia system for rodents (Matrx™ VIP 3000 isoflurane vaporizer, Midmark). Before wounding, the dorsal surface was shaved and sterilely prepped with 70% ethanol for surgery. Dorsal skin was positioned between 2 circular magnets having 12-mm diameter for 12 hours and removed from them for 12 hours for 1 ischemia-reperfusion cycle. Pressure ulcer was created by 2 ischemia-reperfusion cycles. The force generated between the 2 magnets was 0.183N for a 5-mm skin bridge between the 2 magnets.
After 2 ischemia-reperfusion cycles, the compositions containing 1 μM to 4,000 μM adenine in normal saline or only normal saline as Control were individually applied on the pressure ulcer wound of mice once daily for 14 days.
(§1) Wounds of each mice were photographed everyday with standardized exposure and focal lengths using a digital camera (Lumix DMC-GF1, Panasonic), and wound areas were analyzed and calculated according to the analysis as described in Example 1.

The subject of assay [2] is full-thickness excisional skin wounds of C57BL/6J mice. The assay is described as follows: Excisional skin wound healing and scar formation. In kind it is in vivo. How it is done: C57BL/6J mice were maintained at 22° C. under a 12-h light/dark cycle. The experiments were performed with 12-weeks old mice. After anesthetized by an intraperitoneal injection of ketamine ([…]) and xylazine (100 mg/kg), 6-mm full-thickness excisional skin wounds was made on the backs of mice using 6-mm skin biopsy punches. Immediately after wounding, 1 μM to 4000 μM of adenine in […] saline or saline alone was applied to the wound bed. The skin wounds were then covered by semipermeable transparent dressing and fixed to the skin. The mice were treated with adenine or vehicle for 14 days and then sacrificed. The scar formation was assessed by Masson's trichrome staining to observe the fibrosis process and the collagen framework of the healed wound (Fixed by 4% paraformaldehyde).

Another assay relates to ATP. Put plainly: ATP assay in regenerated skin tissue. The format is in vivo. The following applies: db/db mice; 12 days post wounding; ATP colorimetric assay. How it is done:
The process of animal experiment was the same as Example 2, except that after 12 days post wounding, skin tissues of db/db mice were homogenized and centrifuged for 10 mins with 8,000 rpm at 4° C. Supernatant from tissue lysate was filled up in the column and spun down at 1,000×g for 2 minutes. 10 μL of eluate was analyzed using ATP colorimetric assay kit (Biovision).

The subject of the next assay is 3T3 cells. The assay is described as follows: Fibroblast (3T3) cell proliferation assay. To be noted: 72 h; dose-dependent. The format is cell-based, Human. The method, then:
[…] fibro blast cell line 3T3 were cultured in high-glucose Dulbecco's modified Eagle's medium (DMEM) containing 10% fetal bovine serum (FBS), 4 mM L-glutamine, 2 mM sodium pyruvate and 1% penicillin/streptomycin (Invitrogen GibeoBRL, Carlsbad, Calif., USA) at 37° C. under 5% CO2. For cell proliferation assay, 3T3 cells were plated at 1×10^5 per well (6-well plate). 24 h after plating, cells were treated with indicated concentration of adenine for 72 h and the number of viable cells was counted. Cells were detached using trypsin-EDTA solution and stained with trypan blue. The living cells were counted using hemocytometer. […] Data were presented as the mean±SEM of three independent experiments.

Assay [3] concerns scald burn wound of C57BL/6 mice. The assay is described as follows: Scald burns healing. The format is in vivo. To be noted: 1 to 4,000 μM adenine in normal saline, once daily for 28 days. The method, then:
The C57BL/6 mice approximately at 8 weeks of age were purchased from the National Laboratory Animal Center (NLAC, R.O.C.). The mice were deeply anesthetized by injecting intraperitoneally normal saline mixed with zoletil 50 and 2% rompun in a ratio of 2:1:1 (2 μl per gram of body weight). Each of the mice was shaved by depilatory cream. The shaved dorsal surface of each mice was sterilized with 70% ethanol and then the mice were placed in a restrainer with a 2×3 cm hole at the top. The dorsal surface of mice was exposed toward the hole of restrainer. The water at 60° C. was applied to the dorsal surface of mice for 40 seconds, followed by water at 4° C. for 45 seconds. The mice of Control group was only applied with water at 4° C. for 45 seconds. After scalding, each of the mice was then individually placed in a cage, and fed with diazepam in the drinking water (50 mg/L) for the early 7 days. The mice were monitored every day for body weight of and wound infections. […]
as §1

In assay [4] the test system is diabetic wound of db/db mice. Put plainly: Diabetic wound healing, 0.02% adenine gel on splinted full thickness wound. To be noted: 0.02% adenine in a form of gel, once daily for 15 days. In kind it is in vivo. The method, then: The BKS. Cg-Dock7^m+/+Lepr^db/Jnarl (db/db) male mice at 8 weeks of age were purchased from the National Laboratory Animal Center (NLAC, R.O.C.). A total number of 10 mice with healthy and intact skin were used for the test for diabetic wound healing. The average±SEM body weight of the mice was 34.5±1.5 g. All mice had fasting blood glucose levels over 300 mg/dL.
The mice were housed individually in stainless steel cage, and were quarantined and acclimated for at least one week prior to test for diabetic wound healing. The temperature and relative humidity were in the range stipulated in the protocol at 21±2° C. and 55±10%, respectively. A 12-h/12-h light/dark cycle was maintained with light on at 7:00 AM and off at 7:00 PM.
The method for applying the composition containing 0.02% of adenine to the diabetic wound of mice was shown as follows. The mice described in Preparation example 4 were randomly divided into two groups of five animals each and then were anesthetized with isoflurane by use of an anesthesia system for rodents (Matrx™ VIP 3000 isoflurane vaporizer, Midmark). […]
as §1

For `Nc1ncnc2nc[nH]c12` [Adenine, adenine], in the assay on AMPK, the “phosphorylation level of ACC in regenerated skin tissue” value is reported as “efficiently enhance phosphorylation level” and the “phosphorylation level of AMPK in regenerated skin tissue” value is on record as “efficiently enhance phosphorylation level”. Further, the “process of healing of pressure ulcer wound” value in assay [1] (once daily for 14 days) was “efficiently enhance the process of healing of pressure ulcer wound”. Besides, the “extent of closure versus control mice” value in assay [1] (after 14 day of treatment, dose-dependent) is reported as “significantly greater”. Besides, the “scar width compared to vehicle treated wounds” value in assay [2] (14 days post-wounding, topical treatment, histological examination) is “significantly decreased”. The “extent of closure versus control mice” value in assay [2] (after 14 days of treatment, 1 μM to 4000 μM adenine in saline, dose-dependent) is “significantly greater”. Also, the “ATP level in regenerated skin tissue” value in the assay with ATP is on record as “efficiently increase ATP level”. Also, the 3T3 cell proliferation result in the assay on 3T3 cells was “significantly inhibited”. In addition, in assay [3], the inflammatory response entry was “efficiently decrease inflammatory response” and the “process of healing of scald burns wound” value was “enhance the process of healing of scald burns wound”. Moreover, in assay [4], the “process of diabetic wound healing” value is reported as “efficiently enhance the process of diabetic wound healing”.
